In ChEMBL document CHEMBL5046241, “The novel therapeutic strategy of vilazodone-donepezil chimeras as potent triple-target ligands for the potential treatment of Alzheimer's disease with comorbid depression” (Eur J Med Chem, 2022):

Assays:
[1] = biological target: Cholinesterase (Mus musculus, UniProt Q03311)
Description: Inhibition of BuChE in mouse serum using butyrylthiocholine iodide as substrate incubated for 20 mins by Ellman's method

[2] = biological target: T1, 5-hydroxytryptamine receptor 1A (Homo sapiens, UniProt P08908)
T1 sequence (P08908 whole entry): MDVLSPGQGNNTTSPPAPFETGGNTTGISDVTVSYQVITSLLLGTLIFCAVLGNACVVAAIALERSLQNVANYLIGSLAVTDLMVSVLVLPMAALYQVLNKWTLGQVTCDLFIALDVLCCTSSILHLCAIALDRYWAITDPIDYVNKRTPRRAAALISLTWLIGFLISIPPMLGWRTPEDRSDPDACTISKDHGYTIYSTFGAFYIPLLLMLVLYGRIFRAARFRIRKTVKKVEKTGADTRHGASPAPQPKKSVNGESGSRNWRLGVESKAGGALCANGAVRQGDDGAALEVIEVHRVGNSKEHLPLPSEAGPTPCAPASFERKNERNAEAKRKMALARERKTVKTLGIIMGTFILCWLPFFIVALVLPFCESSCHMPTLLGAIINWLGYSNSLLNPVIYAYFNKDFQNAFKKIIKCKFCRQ
Description: Agonist activity at human 5-HT1A receptor expressed in HEK293 cells incubated for 60 mins by Eu-cAMP tracer based LANCE ultra cAMP assay

[3] = in vitro; details: PAMPA
Description: Permeability of compound by PAMPA-BBB assay

[4] = biological target: T2, Acetylcholinesterase (Mus musculus, UniProt P21836); experiment: biochemical
T2 sequence (P21836 whole entry): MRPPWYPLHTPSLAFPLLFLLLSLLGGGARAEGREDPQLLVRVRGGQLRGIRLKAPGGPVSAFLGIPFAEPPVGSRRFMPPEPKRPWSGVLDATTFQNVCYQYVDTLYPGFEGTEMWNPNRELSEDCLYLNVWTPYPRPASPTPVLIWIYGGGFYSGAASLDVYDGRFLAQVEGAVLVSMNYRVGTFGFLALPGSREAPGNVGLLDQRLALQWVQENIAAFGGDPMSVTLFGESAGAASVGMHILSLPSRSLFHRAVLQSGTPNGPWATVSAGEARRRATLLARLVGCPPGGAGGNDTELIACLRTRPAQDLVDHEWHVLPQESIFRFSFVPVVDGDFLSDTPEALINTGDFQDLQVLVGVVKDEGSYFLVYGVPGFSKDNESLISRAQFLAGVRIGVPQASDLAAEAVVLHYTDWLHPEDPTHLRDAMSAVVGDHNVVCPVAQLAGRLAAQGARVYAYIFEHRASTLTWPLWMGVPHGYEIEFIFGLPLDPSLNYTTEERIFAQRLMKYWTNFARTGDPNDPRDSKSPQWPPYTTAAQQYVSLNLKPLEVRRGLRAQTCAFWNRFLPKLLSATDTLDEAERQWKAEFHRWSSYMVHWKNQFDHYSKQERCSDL
Description: Inhibition of AChE in mouse cortical homogenate using acetylthiocholine iodide as substrate incubated for 20 mins by Ellman's method

[5] = biological target: Sodium-dependent serotonin transporter (Homo sapiens, UniProt P31645); type: cell-based, HEK293
Sequence of Sodium-dependent serotonin transporter (P31645 whole entry): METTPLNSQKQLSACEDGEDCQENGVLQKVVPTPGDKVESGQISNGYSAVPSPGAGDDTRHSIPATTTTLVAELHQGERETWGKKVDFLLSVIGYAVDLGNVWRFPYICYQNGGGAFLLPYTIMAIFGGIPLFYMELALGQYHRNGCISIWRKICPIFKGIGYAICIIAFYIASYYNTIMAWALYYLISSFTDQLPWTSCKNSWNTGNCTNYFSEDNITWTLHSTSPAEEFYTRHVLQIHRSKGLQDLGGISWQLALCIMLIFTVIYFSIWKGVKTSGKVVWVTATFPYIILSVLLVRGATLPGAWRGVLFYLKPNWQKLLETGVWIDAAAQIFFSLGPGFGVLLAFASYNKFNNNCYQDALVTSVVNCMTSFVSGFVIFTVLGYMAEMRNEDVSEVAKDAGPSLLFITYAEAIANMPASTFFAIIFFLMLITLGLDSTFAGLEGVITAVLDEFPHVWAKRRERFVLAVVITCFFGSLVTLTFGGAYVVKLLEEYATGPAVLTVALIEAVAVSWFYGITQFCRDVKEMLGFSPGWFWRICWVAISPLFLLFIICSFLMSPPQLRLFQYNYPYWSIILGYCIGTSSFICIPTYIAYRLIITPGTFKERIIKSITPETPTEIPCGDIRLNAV

Sequence of Cholinesterase (Q03311 whole entry): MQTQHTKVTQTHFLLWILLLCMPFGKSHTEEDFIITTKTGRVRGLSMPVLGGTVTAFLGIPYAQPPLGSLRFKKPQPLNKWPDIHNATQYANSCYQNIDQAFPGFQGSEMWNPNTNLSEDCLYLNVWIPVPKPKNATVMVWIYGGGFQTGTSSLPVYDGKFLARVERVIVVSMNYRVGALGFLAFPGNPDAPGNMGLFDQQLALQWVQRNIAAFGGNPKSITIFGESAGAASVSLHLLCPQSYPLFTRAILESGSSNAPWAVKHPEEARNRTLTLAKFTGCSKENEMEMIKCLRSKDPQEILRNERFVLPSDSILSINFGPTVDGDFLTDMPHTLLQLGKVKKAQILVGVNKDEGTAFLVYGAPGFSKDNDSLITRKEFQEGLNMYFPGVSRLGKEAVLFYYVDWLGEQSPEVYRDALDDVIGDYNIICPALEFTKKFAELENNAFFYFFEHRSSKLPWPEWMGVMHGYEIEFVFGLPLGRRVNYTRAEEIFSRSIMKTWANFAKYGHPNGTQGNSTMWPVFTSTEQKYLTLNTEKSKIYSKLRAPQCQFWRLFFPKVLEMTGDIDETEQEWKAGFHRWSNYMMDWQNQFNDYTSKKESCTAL

| SMILES | IC50 [1] | EC50 [2] | Papp [3] | IC50 [4] | IC50 [5] |
| --- | --- | --- | --- | --- | --- |
| N#Cc1ccc2[nH]cc(CN3CCN(c4ccc(C(=O)CCC5CCN(Cc6ccoc6)CC5)cc4)CC3)c2c1 | 1400 nM | > 1000 nM | 5.56 ×10⁻⁶ cm/s | 10.6 nM | – |
| N#Cc1ccc2c(CCCCN3CCN(c4ccc(C(=O)CCC5CCN(Cc6ccccc6)CC5)cc4)CC3)c[nH]c2c1 | 2640 nM | > 1000 nM | – | 3.71 nM | – |
| N#Cc1ccc2[nH]cc(CCCCN3CCN(c4ccc(C(=O)CCC5CCN(Cc6cccc(Cl)c6)CC5)cc4)CC3)c2c1 | 15300 nM | 203 nM | – | 27 nM | – |
| N#Cc1ccc2[nH]cc(CCCCN3CCN(c4ccc(C(=O)CCC5CCN(CC6CC6)CC5)cc4)CC3)c2c1 | 743 nM | 9.1 nM | – | 366 nM | – |
| COc1cccc(CN2CCC(CCC(=O)c3ccc(N4CCN(CCCCc5c[nH]c6ccc(C#N)cc56)CC4)cc3)CC2)c1 | – | – | – | 644 nM | – |
| N#Cc1ccc2[nH]cc(CCCCN3CCN(c4ccc(C(=O)CCC5CCN(Cc6cccc(Br)c6)CC5)cc4)CC3)c2c1 | – | – | – | 91.5 nM | – |
| N#Cc1ccc2[nH]cc(CCCN3CCN(c4ccc(C(=O)CCC5CCN(Cc6cccnc6)CC5)cc4)CC3)c2c1 | 2010 nM | – | – | 6.41 nM | – |
| N#Cc1ccc2[nH]cc(CCCCN3CCN(c4ccc(C(=O)CCC5CCN(Cc6cc[nH]c6)CC5)cc4)CC3)c2c1 | 2000 nM | 22.2 nM | 4.77 ×10⁻⁶ cm/s | 3.94 nM | 8.25 nM |
| N#Cc1ccc2[nH]cc(CN3CCN(c4ccc(C(=O)CCC5CCN(Cc6cccnc6)CC5)cc4)CC3)c2c1 | 5850 nM | > 1000 nM | 2.86 ×10⁻⁶ cm/s | 9.97 nM | – |
| N#Cc1ccc2[nH]cc(CCCCN3CCN(c4ccc(C(=O)CCC5CCN(CC6CCCCC6)CC5)cc4)CC3)c2c1 | 2830 nM | – | – | 76.5 nM | – |
| N#Cc1ccc2[nH]cc(CCCCN3CCN(c4ccc(C(=O)CCC5CCN(Cc6ccoc6)CC5)cc4)CC3)c2c1 | 2730 nM | 19 nM | 4.68 ×10⁻⁶ cm/s | 8.95 nM | 35.7 nM |
| N#Cc1ccc2[nH]cc(CCCCN3CCN(c4cccc5c4C(=O)C(CC4CCN(Cc6ccccc6)CC4)C5)CC3)c2c1 (stereo not drawn) | 183 nM | 36 nM | – | 709 nM | – |
| N#Cc1ccc2[nH]cc(CCCCN3CCN(c4ccc5c(c4)C(=O)C(CC4CCN(Cc6ccccc6)CC4)C5)CC3)c2c1 (stereo not drawn) | 325 nM | – | – | 37.4 nM | – |
| O=C(CCC1CCN(Cc2ccccc2)CC1)c1ccc(N2CCN(CCCCc3c[nH]c4ccccc34)CC2)cc1 | 986 nM | – | – | 1.51 nM | 285 nM |
| N#Cc1ccc2[nH]cc(CCN3CCN(c4ccc(C(=O)CCC5CCN(Cc6ccccc6)CC5)cc4)CC3)c2c1 | 3000 nM | – | – | 5.04 nM | 32.3 nM |
| N#Cc1ccc2[nH]cc(CN3CCN(c4ccc(C(=O)CCC5CCN(Cc6ccccc6)CC5)cc4)CC3)c2c1 | 979 nM | > 1000 nM | 3.67 ×10⁻⁶ cm/s | 6.43 nM | 54.5 nM |
| O=C(CCC1CCN(Cc2ccccc2)CC1)c1ccc(N2CCN(CCCCc3c[nH]c4ccc(F)cc34)CC2)cc1 | 1470 nM | – | – | 2.43 nM | 114 nM |
| N#Cc1ccc2[nH]cc(CCCCN3CCN(c4ccc(C(=O)CCC5CCN(Cc6cccc(C(F)(F)F)c6)CC5)cc4)CC3)c2c1 | – | 323 nM | – | 294 nM | – |
| N#Cc1ccc2[nH]cc(CCCCN3CCN(c4ccc5c(c4)CC(CC4CCN(Cc6ccccc6)CC4)C5=O)CC3)c2c1 (stereo not drawn) | 1670 nM | – | – | 5.84 nM | 36 nM |
| CCCCN1CCC(CCC(=O)c2ccc(N3CCN(CCCCc4c[nH]c5ccc(C#N)cc45)CC3)cc2)CC1 | 1910 nM | – | – | 124 nM | – |
| N#Cc1ccc2[nH]cc(CCCCN3CCN(c4ccccc4C(=O)CCC4CCN(Cc5ccccc5)CC4)CC3)c2c1 | 351 nM | – | – | 2520 nM | – |
| Cc1cccc(CN2CCC(CCC(=O)c3ccc(N4CCN(CCCCc5c[nH]c6ccc(C#N)cc56)CC4)cc3)CC2)c1 | 13400 nM | – | – | 18.3 nM | – |
| CCN1CCC(CCC(=O)c2ccc(N3CCN(CCCCc4c[nH]c5ccc(C#N)cc45)CC3)cc2)CC1 | 2380 nM | 9 nM | – | 393 nM | – |
| O=C(CCC1CCN(Cc2ccccc2)CC1)c1ccc(N2CCN(CCCCc3c[nH]c4ccc(Cl)cc34)CC2)cc1 | 2720 nM | – | – | 3.52 nM | 159 nM |

| SMILES | IC50 [1] | EC50 [2] | Papp [3] | IC50 [4] | IC50 [5] |
| --- | --- | --- | --- | --- | --- |
| N#Cc1ccc2[nH]cc(CCN3CCN(c4ccc5c(c4)CC(CC4CCN(Cc6ccccc6)CC4)C5=O)CC3)c2c1 (stereo not drawn) | 638 nM | > 1000 nM | 4.16 ×10⁻⁶ cm/s | 8.7 nM | 8.81 nM |
| N#Cc1ccc2[nH]cc(CCN3CCN(c4ccc(C(=O)CCC5CCN(Cc6cc[nH]c6)CC5)cc4)CC3)c2c1 | 3570 nM | > 1000 nM | 3.15 ×10⁻⁶ cm/s | 3.54 nM | 8.41 nM |
| N#Cc1ccc2[nH]cc(CCCCN3CCN(c4cccc(C(=O)CCC5CCN(Cc6ccccc6)CC5)c4)CC3)c2c1 | 1000 nM | – | – | 37.9 nM | – |
| N#Cc1ccc2[nH]cc(CCN3CCN(c4ccc(C(=O)CCC5CCN(Cc6cccnc6)CC5)cc4)CC3)c2c1 | 6750 nM | 547 nM | 2.58 ×10⁻⁶ cm/s | 7.7 nM | – |
| O=C(CCC1CCN(Cc2ccccc2)CC1)c1ccc(N2CCN(CCCCc3c[nH]c4cc(Cl)c(Cl)cc34)CC2)cc1 | 5810 nM | > 1000 nM | – | 11.2 nM | – |
| Cc1ccc2[nH]cc(CCCCN3CCN(c4ccc(C(=O)CCC5CCN(Cc6ccccc6)CC5)cc4)CC3)c2c1 | 1200 nM | 279 nM | 2.5 ×10⁻⁶ cm/s | 2.28 nM | > 1000 nM |
| N#Cc1ccc2[nH]cc(CCN3CCN(c4ccc(C(=O)CCC5CCN(Cc6ccsc6)CC5)cc4)CC3)c2c1 | 1860 nM | > 1000 nM | 4.77 ×10⁻⁶ cm/s | 2.56 nM | 33.5 nM |
| N#Cc1ccc2[nH]cc(CCCN3CCN(c4ccc(C(=O)CCC5CCN(Cc6cc[nH]c6)CC5)cc4)CC3)c2c1 | 1130 nM | – | – | 3.27 nM | 14.9 nM |
| C=CCN1CCC(CCC(=O)c2ccc(N3CCN(CCCCc4c[nH]c5ccc(C#N)cc45)CC3)cc2)CC1 | 1660 nM | 8.6 nM | – | 267 nM | – |
| O=C(CCC1CCN(Cc2ccccc2)CC1)c1ccc(N2CCN(CCCCc3c[nH]c4ccc(Br)cc34)CC2)cc1 | 3840 nM | – | – | 7.75 nM | – |
| COC(=O)c1ccc2[nH]cc(CCCCN3CCN(c4ccc(C(=O)CCC5CCN(Cc6ccccc6)CC5)cc4)CC3)c2c1 | 336 nM | – | – | 3.28 nM | > 1000 nM |
| N#Cc1ccc2[nH]cc(CCCCN3CCN(c4ccc(C(=O)CCC5CCN(Cc6ccc(F)cc6)CC5)cc4)CC3)c2c1 | 2680 nM | 162 nM | – | 32.4 nM | – |
| COc1ccc2[nH]cc(CCCCN3CCN(c4ccc(C(=O)CCC5CCN(Cc6ccccc6)CC5)cc4)CC3)c2c1 | 687 nM | – | – | 2.42 nM | 76.5 nM |
| N#Cc1ccc2[nH]cc(CCCN3CCN(c4ccc(C(=O)CCC5CCN(Cc6ccoc6)CC5)cc4)CC3)c2c1 | 1340 nM | 29 nM | 5.17 ×10⁻⁶ cm/s | 9.61 nM | – |
| N#Cc1ccc2[nH]cc(CCCCN3CCN(c4ccc(C(=O)CCC5CCN(Cc6ccccc6F)CC5)cc4)CC3)c2c1 | 2510 nM | – | – | 12 nM | – |
| N#Cc1ccc2[nH]cc(CCCN3CCN(c4ccc(C(=O)CCC5CCN(Cc6ccsc6)CC5)cc4)CC3)c2c1 | 1200 nM | – | – | 1.85 nM | 41.1 nM |
| N#Cc1ccc2[nH]cc(CCCCN3CCN(c4ccc(C(=O)CCC5CCN(Cc6ccc7ccccc7c6)CC5)cc4)CC3)c2c1 | – | > 1000 nM | – | – | – |
| C#CCN1CCC(CCC(=O)c2ccc(N3CCN(CCCCc4c[nH]c5ccc(C#N)cc45)CC3)cc2)CC1 | – | 29 nM | – | 1140 nM | – |
| N#Cc1ccc2[nH]cc(CCCCN3CCN(c4ccc5c(c4)C/C(=C\C4CCN(Cc6ccccc6)CC4)C5=O)CC3)c2c1 | 4950 nM | – | – | 30.7 nM | – |
| N#Cc1ccc2[nH]cc(CCN3CCN(c4ccc(C(=O)CCC5CCN(Cc6ccoc6)CC5)cc4)CC3)c2c1 | 2840 nM | – | – | 12.3 nM | – |
| N#Cc1ccc2[nH]cc(CCCCN3CCN(c4ccc(C(=O)CCC5CCN(Cc6cccc(F)c6)CC5)cc4)CC3)c2c1 | 11300 nM | – | – | 10.9 nM | – |
| N#Cc1ccc2[nH]cc(CCCCN3CCN(c4ccc(C(=O)CCC5CCN(CC6CCCC6)CC5)cc4)CC3)c2c1 | 1760 nM | 49.8 nM | – | 40.4 nM | – |
| N#Cc1ccc2[nH]cc(CCCCN3CCN(c4ccc(C(=O)CCC5CCN(CC6CCC6)CC5)cc4)CC3)c2c1 | 1320 nM | – | – | 249 nM | – |
